Results taken from US20250154154A1 (Relay Binney Street, 2nd Floor, priority 2020, published 2025).

Tests used:
[1] = target: SRC (Homo sapiens, UniProt P12931); assay: SRC Biochemical Assay Protocol (microfluidic mobility shift assay, FLPeptide4 substrate)
Summary of the method: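 Mobility-shift readout of phosphorylated FLPeptide4 (1.5 μM) after 90 min kinase reaction with 50 μM ATP and 0.26 nM SRC in pH 7.4 HEPES buffer. Compounds, tested 0.0017–100 μM, were preincubated 30 min with enzyme and peptide; IC50 from 4-parameter logistic fit versus neutral controls.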

[2] = test system: RBE cells; assay: Cell Viability Protocol (CellTiterGlo), RBE cells; format: cell-based; details: RBE or SNU-1079 cells, 72 or 120 hour, cell line and time not given
Summary of the method: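 After 72 h or 120 h compound exposure at 37° C, viability was read by CellTiterGlo as % of DMSO vehicle, with IC50 fitted by a 4-parameter curve. Cells had been seeded at 1200/well in 10% FBS RPMI 1640 and allowed 24 h before dosing.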

[3] = test system: phospho-S6RP (Ser 235/236) in RBE cells; assay: Cellular Proliferation Protocol (cellular phospho-S6RP HTRF), RBE cells; format: cell-based; details: 6 hours treatment, RBE or SNU-1079 cells, cell line not given
Summary of the method: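 Phospho-S6RP (Ser 235/236) was quantified by HTRF in lysed RBE cells (2000/well) after a 6 h treatment at 37° C, with overnight antibody incubation at room temperature. IC50 values came from 4-parameter dose-response fits relative to DMSO vehicle.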

Chain of SRC (P12931 whole entry, species assumed): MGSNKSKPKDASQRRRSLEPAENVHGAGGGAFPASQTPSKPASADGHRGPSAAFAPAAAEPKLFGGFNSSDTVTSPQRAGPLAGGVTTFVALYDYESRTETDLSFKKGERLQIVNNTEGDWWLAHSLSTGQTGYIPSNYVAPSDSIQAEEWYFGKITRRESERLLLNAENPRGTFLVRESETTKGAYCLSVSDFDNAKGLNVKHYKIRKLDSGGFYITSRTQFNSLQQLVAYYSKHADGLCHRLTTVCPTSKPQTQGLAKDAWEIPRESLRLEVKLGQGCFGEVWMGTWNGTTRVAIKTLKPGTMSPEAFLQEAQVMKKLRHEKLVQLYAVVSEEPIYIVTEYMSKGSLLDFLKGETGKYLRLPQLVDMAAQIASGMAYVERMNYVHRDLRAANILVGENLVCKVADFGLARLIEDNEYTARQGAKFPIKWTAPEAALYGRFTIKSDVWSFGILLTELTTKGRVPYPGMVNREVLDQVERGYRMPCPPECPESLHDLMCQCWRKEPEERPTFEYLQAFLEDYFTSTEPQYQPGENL

SMILES	IC50 [1]	IC50 [2]	IC50 ([3]; 6 h)	IC50 [3]
C=CC(=O)N1C[C@@H]2[C@@H](C#Cc3c(-c4ccc(F)c5c4OCO5)c4c(N)ncnc4n3C)[C@@H]2C1 [II-130]	≤ 10 nM	10 to 1000 nM		10 to 1000 nM
C=CC(=O)N1CCC(N2CC(C#Cc3c(-c4ccc(Cl)c(CF)c4)c4c(N)ncnc4n3C)C2)CC1 [II-89]	10 to 1000 nM	10 to 1000 nM		10 to 1000 nM
C=CC(=O)N1CCC(O)(C#Cc2c(-c3ccc(Oc4ccccc4)cc3)c3c(N)ncnc3n2C(C)C)CC1 [Example I-25]	≤ 10 nM	≤ 10 nM	≤ 10 nM	
C=CC(=O)N1CCC(C#Cc2c(-c3ccc(Nc4ccccc4)cc3)c3c(N)ncnc3n2C(C)C)CC1 [Example I-7]	10 to 1000 nM	10 to 1000 nM	≤ 10 nM	
C=CC(=O)N1CC[C@@H](N2CC(C#Cc3c(-c4ccc(Oc5ccccc5)cc4)c4c(N)ncnc4n3C)C2)[C@@H](O)C1 [II-165, 1-((3S,4R)-4-(3-((4-amino-7-methyl-5-(4-phenoxyphenyl)-7H-pyrrolo[2,3-d]pyrimidin-6-yl)ethynyl)azetidin-1-yl)-3-hydroxypiperidin-1-yl)prop-2-en-1-one]	10 to 1000 nM	≤ 10 nM	≤ 10 nM	
CN(C)C/C=C/C(=O)N1CC(C#Cc2c(-c3ccc(Oc4ccccc4)cc3)c3c(N)ncnc3n2C2CC(=O)N(C)C2)C1 (stereo not drawn) [II-192, (E)-4-(4-amino-6-((1-(4-(dimethylamino)but-2-enoyl)azetidin-3-yl)ethynyl)-5-(4-phenoxyphenyl)-7H-pyrrolo[2,3-d]pyrimidin-7-yl)-1-methylpyrrolidin-2-one]	10 to 1000 nM	1000 to 10000 nM	1000 to 10000 nM	
C=CC(=O)N1CC[C@H](N2CC(C#Cc3c(-c4ccccc4OC)c4c(N)ncnc4n3C)C2)[C@H](O)C1 [II-274]	10 to 1000 nM	1000 to 10000 nM	1000 to 10000 nM	
C=CC(=O)N1C[C@@H]2[C@@H](C#Cc3c(-c4ccccc4OC)c4c(N)ncnc4n3C)[C@@H]2C1 [II-269]	10 to 1000 nM	10 to 1000 nM	10 to 1000 nM	
Cc1cccc(Oc2ccc(-c3c(C#C[C@@H]4[C@H]5CN(C(=O)/C=C/CN(C)C)C[C@@H]45)n(C4CCOC4)c4ncnc(N)c34)cc2)n1 (mixture of isomers) [II-28]	10 to 1000 nM	10 to 1000 nM		10 to 1000 nM
C=CC(=O)N1CC[C@H](N2CC(C#Cc3c(-c4ccc(Cl)c(C)c4)c4c(N)ncnc4n3C(C)C)C2)[C@H](F)C1 [II-111]	≤ 10 nM	10 to 1000 nM		10 to 1000 nM
C=CC(=O)N1CCC(C#Cc2[nH]c3ncnc(N)c3c2-c2ccc(Oc3ccccc3)cc2)CC1 [Example I-1]	10 to 1000 nM	10 to 1000 nM	≤ 10 nM	
C=CC(=O)N1CCC(N2CC(C#Cc3c(-c4ccc(Oc5ccccc5)c(OC)c4)c4c(N)ncnc4n3C)C2)C[C@H]1CO (stereo partly drawn) [II-248, 1-((2S)-4-(3-((4-amino-5-(3-methoxy-4-phenoxyphenyl)-7-methyl-7H-pyrrolo[2,3-d]pyrimidin-6-yl)ethynyl)azetidin-1-yl)-2-(hydroxymethyl)piperidin-1-yl)prop-2-en-1-one]	≤ 10 nM	10 to 1000 nM	10 to 1000 nM	
C=CC(=O)N1C[C@@H]2[C@@H](C#Cc3c(-c4ccc(Oc5cccc(C)n5)cc4)c4c(N)ncnc4n3C)[C@@H]2C1 [II-206, 1-[(1R,5S,6S)-6-[2-(4-amino-7-methyl-5-[4-[(6-methylpyridin-2-yl)oxy]phenyl]-7H-pyrrolo[2,3-d]pyrimidin-6-yl)ethynyl]-3-azabicyclo[3.1.0]hexan-3-yl]prop-2-en-1-one]	10 to 1000 nM	≤ 10 nM	≤ 10 nM	
C=CC(=O)N1CCC(N2CC(C#Cc3c(-c4ccc(Cl)cc4)c4c(N)ncnc4n3CCOC)C2)CC1 [II-85]	10 to 1000 nM	10 to 1000 nM		10 to 1000 nM
C=CC(=O)N1CCC(N2CC(C#Cc3c(-c4ccc(Oc5ccccc5)cc4)c4c(N)ncnc4n3CCOC)C2)CC1 [II-189, 1-(4-(3-((4-amino-7-(2-methoxyethyl)-5-(4-phenoxyphenyl)-7H-pyrrolo[2,3-d]pyrimidin-6-yl)ethynyl)azetidin-1-yl)piperidin-1-yl)prop-2-en-1-one]	10 to 1000 nM	1000 to 10000 nM	1000 to 10000 nM	
C=CC(=O)N1CC[C@@H](N2CC(C#Cc3c(-c4ccc(OC(F)(F)F)cc4)c4c(N)ncnc4n3C)C2)[C@@H](O)C1 [II-73]	10 to 1000 nM	10 to 1000 nM		10 to 1000 nM
C=CC(=O)N1CC[C@@H](N2CC(C#Cc3c(-c4ccc(Oc5cccc(C)n5)cc4OC)c4c(N)ncnc4n3C)C2)[C@@H](O)C1 [II-19]	10 to 1000 nM	1000 to 10000 nM		10 to 1000 nM
C=CC(=O)N1CCC(N2CC(C#Cc3c(-c4ccc(F)c5c4OCO5)c4c(N)ncnc4n3C(C)C)C2)CC1 [II-134]	≤ 10 nM	10 to 1000 nM		10 to 1000 nM
C=CC(=O)N1CC2C(C#Cc3c(-c4cccc5c4OCO5)c4c(N)ncnc4n3C)C2C1 (stereo not drawn) [II-126]	≤ 10 nM	10 to 1000 nM		10 to 1000 nM
C=CC(=O)N1CC[C@@H](N2CC(C#Cc3c(-c4ccc(Oc5ccccc5)c(OC)n4)c4c(N)ncnc4n3C)C2)[C@@H](O)C1 [II-316]	10 to 1000 nM	≤ 10 nM		≤ 10 nM
C=CC(=O)N1CC[C@@H](N2CC(C#Cc3c(-c4ccc(C5CC5)c(OC)c4)c4c(N)ncnc4n3C)C2)[C@@H](O)C1 [II-67]	10 to 1000 nM	10 to 1000 nM		10 to 1000 nM
C=CC(=O)N1C[C@@H]2[C@@H](C#Cc3c(-c4ccc(Oc5cccc(C)n5)c(OC)c4)c4c(N)ncnc4n3C)[C@@H]2C1 [II-218, 1-((1R,5S,6s)-6-((4-amino-5-(3-methoxy-4-((6-methylpyridin-2-yl)oxy)phenyl)-7-methyl-7H-pyrrolo[2,3-d]pyrimidin-6-yl)ethynyl)-3-azabicyclo[3.1.0]hexan-3-yl)prop-2-en-1-one]	10 to 1000 nM	10 to 1000 nM	10 to 1000 nM	
C=CC(=O)N1CCC(N2CC(C#Cc3c(-c4ccc(OC5CC5)c(OC)c4)c4c(N)ncnc4n3C)C2)CC1 [II-98]	10 to 1000 nM	10 to 1000 nM		10 to 1000 nM

The next lines start with results.

IC50 [1]	SMILES	IC50 [2]	IC50 ([3]; 6 h)	IC50 [3]
10 to 1000 nM	Cn1c(C#C[C@@H]2[C@H]3CN(C(=O)/C=C/CN4CCC(F)C4)C[C@@H]23)c(-c2ccc(Oc3cccc(F)c3)cc2)c2c(N)ncnc21 (stereo partly drawn) [II-234, (E)-1-((1R,5S,6s)-6-((4-amino-5-(4-(3-fluorophenoxy)phenyl)-7-methyl-7H-pyrrolo[2,3-d]pyrimidin-6-yl)ethynyl)-3-azabicyclo[3.1.0]hexan-3-yl)-4-(3-fluoropyrrolidin-1-yl)but-2-en-1-one]	10 to 1000 nM	10 to 1000 nM	
10 to 1000 nM	C=CC(=O)N1CCC(N2CC(C#Cc3c(-c4ccc(Oc5cccc(C)n5)cc4)c4c(N)ncnc4n3C)C2)C(F)C1 (stereo not drawn) [II-216, 1-(4-(3-((4-amino-7-methyl-5-(4-(6-methylpyridin-2-yloxy)phenyl)-7H-pyrrolo[2,3-d]pyrimidin-6-yl)ethynyl)azetidin-1-yl)-3-fluoropiperidin-1-yl)prop-2-en-1-one]	10 to 1000 nM	10 to 1000 nM	
10 to 1000 nM	CN(C)C/C=C/C(=O)N1CC2(CC(C#Cc3c(-c4ccc(Oc5ccccc5)cc4)c4c(N)ncnc4n3C3CC(=O)N(C)C3)C2)C1 (stereo not drawn) [II-193, (E)-4-(4-amino-6-((2-(4-(dimethylamino)but-2-enoyl)-2-azaspiro[3.3]heptan-6-yl)ethynyl)-5-(4-phenoxyphenyl)-7H-pyrrolo[2,3-d]pyrimidin-7-yl)-1-methylpyrrolidin-2-one]	1000 to 10000 nM	1000 to 10000 nM	
≤ 10 nM	C=CC(=O)N1C[C@@H]2[C@@H](C#Cc3c(-c4ccc(Oc5ccccc5)c(OC)c4)c4c(N)ncnc4n3C)[C@@H]2C1 [II-27]	≤ 10 nM		≤ 10 nM
10 to 1000 nM	CN(C)C/C=C/C(=O)N1CCCC(C#Cc2c(-c3ccc(Oc4ccccc4)cc3)c3c(N)ncnc3n2C)CC1 (stereo not drawn) [II-179, (E)-1-(4-((4-amino-7-methyl-5-(4-phenoxyphenyl)-7H-pyrrolo[2,3-d]pyrimidin-6-yl)ethynyl)azepan-1-yl)-4-(dimethylamino) but-2-en-1-one]	10 to 1000 nM	10 to 1000 nM	
≤ 10 nM	C=CC(=O)N1C[C@@H]2[C@@H](C#Cc3c(-c4ccc(Cl)c(OC)n4)c4c(N)ncnc4n3C(C)C)[C@@H]2C1 [II-62]	10 to 1000 nM		10 to 1000 nM
10 to 1000 nM	C=CC(=O)N1CCC(N2CC(C#Cc3c(-c4ccc(Cl)c(OC)n4)c4c(N)ncnc4n3C)C2)CC1CO (stereo not drawn) [II-319]	10 to 1000 nM		10 to 1000 nM
≤ 10 nM	C=CC(=O)N1CC[C@H](N2CC(C#Cc3c(-c4ccc(Oc5ccccc5)c(OC)c4)c4c(N)ncnc4n3C)C2)[C@H](O)C1 [II-247, 1-((3R,4S)-4-(3-((4-amino-5-(3-methoxy-4-phenoxyphenyl)-7-methyl-7H-pyrrolo[2,3-d]pyrimidin-6-yl)ethynyl)azetidin-1-yl)-3-hydroxypiperidin-1-yl)prop-2-en-1-one]	≤ 10 nM	≤ 10 nM	
10 to 1000 nM	C=CC(=O)N1CC[C@@H](N2CC(C#Cc3c(-c4ccc(Cl)cc4)c4c(N)ncnc4n3CCOC)C2)[C@@H](O)C1 [II-54]	10 to 1000 nM		10 to 1000 nM
10 to 1000 nM	C=CC(=O)N1CC[C@@H](N2CC(C#Cc3c(-c4ccc(Oc5nccs5)cc4)c4c(N)ncnc4n3C)C2)[C@@H](O)C1 [II-21]	10 to 1000 nM		10 to 1000 nM
